Experiments:
[1] = Foam test of DOSS solutions with added foam control agent (based on ASTM D 1173-53); format: physicochemical; details: 0.1 wt % foam control agent added to 0.1 wt % DOSS in water; for Initial foam height: ambient temperature
Text: Dioctyl sodium sulfosuccinate (DOSS) is a commonly used surfactant in waterborne compositions. DOSS is capable of forming stable foams when dissolved in water. The foam control characteristics of various foam control agents may be assessed by measuring the foam generated by a 0.1 wt % aqueous solution of DOSS and comparing this to the foam generated after the addition of foam control agent to a 0.1 wt % DOSS solution. The DOSS utilized in these measurements was an Aerosol OT 75% surfactant obtained from Cytec Industries. The foaming and foam stability of DOSS were measured using a procedure based upon ASTM D 1173-53 at ambient temperature, typically 23° C.
In these tests, an aqueous solution of DOSS or the filtrate from the DOSS/foam control agent mixture is added from an elevated foam pipette to a foam receiver containing the same solution. The foam height is measured at the completion of the addition (“Initial Foam Height”) and the time required for the foam to dissipate at the air-liquid interface (“Time to 0 Foam”) is recorded. This test provides a comparison between the foaming characteristics of various aqueous compositions. The results for the foam control agents prepared in Examples 1-28 are reported in Table 1 along with comparative data for a 0.1 wt % solution of DOSS with no added foam control agent (Example 29).

[2] = Dynamic surface tension of aqueous solutions, maximum bubble pressure method; format: physicochemical; details: for γ at 0.1 wt %, 0.1 b/s / γ at 0.1 wt %, 1 b/s / γ at 0.1 wt %, 6 b/s / γ at 0.1 wt %, 20 b/s: 0.1 wt % in distilled water; for γ limiting, 0.1 b/s / γ limiting, 1 b/s / γ limiting, 6 b/s / γ limiting, 20 b/s: saturated solution made using 1.0 wt % in water
Text: Dynamic surface tension data were obtained for the soluble portion of these samples using the maximum bubble pressure method at bubble rates from 0.1 bubbles/sec (b/s) to 20 b/s.
The relative efficiency of surface tension reduction can be obtained by comparing surface tension reduction of solutions containing the same amount of different surfactants. Such data are given for 0.1 wt % solutions of the foam control agents at 0.1, 1, 6 and 20 bubbles/second (b/s). The limiting surface tensions at 0.1, 1, 6 and 20 b/s represent the lowest surface tensions in water which can be achieved at the given surface creation rates for a given surfactant regardless of the amount of surfactant used and is used to evaluate the effectiveness of a surfactant. In most cases the limiting surface tension was taken at 1.0 wt % since the foam control agent was insoluble at this concentration. In the case where the foam control agent was soluble at 1.0 wt %, the limiting surface tension was taken at 5.0 wt % (where the samples were insoluble). These values give information about the relative ability to a surfactant to reduce surface defects under near-equilibrium conditions (0.1 b/s) through very dynamic conditions (20 b/s).

Structure (SMILES) | Foam height after 1 min [1] | Foam height after 10 min [1] | Initial foam height [1] | γ at 0.1 wt %, 0.1 b/s [2] | γ at 0.1 wt %, 1 b/s [2] | γ at 0.1 wt %, 6 b/s [2] | γ at 0.1 wt %, 20 b/s [2] | γ limiting, 0.1 b/s [2] | γ limiting, 1 b/s [2] | γ limiting, 6 b/s [2] | γ limiting, 20 b/s [2]
CC(C)COCC(O)CNCCN(CC(O)COCC(C)C)CC(O)COCC(C)C (centres unmarked) [EDA/3 IBGE] | 0.8 cm | 0.7 cm | 0.9 cm | 38.9 dyne/cm | 42.5 dyne/cm | 44.1 dyne/cm | 50.3 dyne/cm | 33.3 dyne/cm | 34.3 dyne/cm | 35.0 dyne/cm | 35.6 dyne/cm
CCCCOCC(O)CNCCN(CC(O)COCCCC)CC(O)COCCCC (centres unmarked) [EDA/3 BGE] | 1.4 cm | 1.2 cm | 2.0 cm | 37.6 dyne/cm | 39.6 dyne/cm | 43.2 dyne/cm | 51.3 dyne/cm | 34.9 dyne/cm | 35.6 dyne/cm | 36.5 dyne/cm | 38.3 dyne/cm
CCCCOCC(O)CNCCCCCCN (racemic) [HDA/1 BGE] | 0.4 cm | 0 cm | 1.4 cm | 42.3 dyne/cm | 44.8 dyne/cm | 47.9 dyne/cm | 52.6 dyne/cm | 39.3 dyne/cm | 40.1 dyne/cm | 41.1 dyne/cm | 42.9 dyne/cm
CCCCOCC(O)CNCCCOCCOCCOCCCN(CC(O)COCCCC)CC(O)COCCCC (centres unmarked) [DAPDEG/3 BGE] | 0.9 cm | 0.1 cm | 1.9 cm | 38.0 dyne/cm | 39.4 dyne/cm | 42.1 dyne/cm | 47.6 dyne/cm | 33.5 dyne/cm | 38.7 dyne/cm | 34.3 dyne/cm | 36.1 dyne/cm
CCCCOCC(O)CNC1CCC(CC2CCC(N)CC2)CC1 (mixture of isomers) [PACM/1 BGE] | 0 cm | 0 cm | 2.3 cm | 44.7 dyne/cm | 47.0 dyne/cm | 50.3 dyne/cm | 55.2 dyne/cm | 43.5 dyne/cm | 44.5 dyne/cm | 46.2 dyne/cm | 48.7 dyne/cm
CCCCC(CC)COCC(O)CN(CCN(CC(O)COCC(CC)CCCC)CC(O)COCC(CC)CCCC)CC(O)COCC(CC)CCCC (centres unmarked) [EDA/4 EHGE] | 2.5 cm | 2.1 cm | 3.0 cm | 60.7 dyne/cm | 67.9 dyne/cm | 71.0 dyne/cm | 71.7 dyne/cm | 44.4 dyne/cm | 50.6 dyne/cm | 51.0 dyne/cm | 52.1 dyne/cm
CCCCC(CC)COCC(O)CNCCN(CC(O)COCC(CC)CCCC)CC(O)COCC(CC)CCCC (centres unmarked) [EDA/3 EHGE] | 1.5 cm | 1.2 cm | 2.1 cm | 45.3 dyne/cm | 58.7 dyne/cm | 70.5 dyne/cm | 70.9 dyne/cm | 33.5 dyne/cm | 36.0 dyne/cm | 47.1 dyne/cm | 48.7 dyne/cm
CCCCOCC(O)CN(CCCC(C)CN(CC(O)COCCCC)CC(O)COCCCC)CC(O)COCCCC (centres unmarked) [MPD/4 BGE] | 1.5 cm | 0.5 cm | 2.5 cm | 42.8 dyne/cm | 55.7 dyne/cm | 67.5 dyne/cm | 67.7 dyne/cm | 35.3 dyne/cm | 36.4 dyne/cm | 38.9 dyne/cm | 41.5 dyne/cm
CCCCOCC(O)CN(CCCOCCOCCOCCCN(CC(O)COCCCC)CC(O)COCCCC)CC(O)COCCCC (centres unmarked) [DAPDEG/4 BGE] | 1.2 cm | 0.2 cm | 2.3 cm | 37.4 dyne/cm | 38.9 dyne/cm | 42.0 dyne/cm | 50.7 dyne/cm | 34.2 dyne/cm | 34.5 dyne/cm | 35.5 dyne/cm | 39.1 dyne/cm
CC(C)COCC(O)CN(CCN(CC(O)COCC(C)C)CC(O)COCC(C)C)CC(O)COCC(C)C (centres unmarked) [EDA/4 IBGE] | 1.5 cm | 1.2 cm | 2.0 cm | 37.6 dyne/cm | 41.7 dyne/cm | 51.4 dyne/cm | 65.5 dyne/cm | 34.8 dyne/cm | 36.7 dyne/cm | 40.3 dyne/cm | 49.4 dyne/cm
CCCCOCC(O)CNCCCCCCN(CC(O)COCCCC)CC(O)COCCCC (centres unmarked) [HDA/3 BGE] | 0 cm | 0 cm | 1.2 cm | 40.3 dyne/cm | 43.1 dyne/cm | 47.5 dyne/cm | 55.4 dyne/cm | 37.9 dyne/cm | 39.1 dyne/cm | 40.7 dyne/cm | 44.4 dyne/cm
CCCCOCC(O)CN(CCCCCCN(CC(O)COCCCC)CC(O)COCCCC)CC(O)COCCCC (centres unmarked) [HDA/4 BGE] | 1.3 cm | 1.2 cm | 1.5 cm | 42.9 dyne/cm | 55.9 dyne/cm | 67.6 dyne/cm | 70.8 dyne/cm | 37.3 dyne/cm | 39.0 dyne/cm | 40.8 dyne/cm | 41.9 dyne/cm
CCCCOCC(O)CNCCCOCCOCCOCCCN (centres unmarked) [DAPDEG/1 BGE] | 0.8 cm | 0.2 cm | 1.7 cm | 50.3 dyne/cm | 54.1 dyne/cm | 56.7 dyne/cm | 61.0 dyne/cm | 36.4 dyne/cm | 40.3 dyne/cm | 42.9 dyne/cm | 45.7 dyne/cm

Source: US6746623B2, “Alkyl glycidyl ether-capped diamine foam controlling agent” (Air Products and Chemicals, Inc., priority 2002, dated 2004)
